Laboratory results: patent publication US20240165093A1, “METHODS FOR TREATING FAMILIAL CHYLOMICRONEMIA SYNDROME” (AMRYT PHARMACEUTICALS INC., priority 2021, published 2024)
“And” between values parts separate entries of the source, which are not always exact repeats. Equal entries are not always repeated.

Assays:
[1] = tested on: patients with Familial Chylomicronemia Syndrome (FCS); experiment: Clinical study in FCS patients: safety and tolerability (adverse events, liver function tests, maximum dose); type: in vivo, human
Method: (§1) Treatment was initiated at 5 mg once daily, and the dose titrated based on acceptable safety/tolerability. After a minimum of 2 weeks at 5 mg once daily the dose was then titrated at a minimum of 4-week intervals to 10 mg, 20 mg, 40 mg, and 60 mg/day (e.g., as shown in the table below) or until an individually determined maximum dose (e.g., in the range of 5-60 mg/day) was reached based on lipid profile, and safety/tolerability. Dose adjustments were also made according to liver transaminase levels. If subjects experienced confirmed alanine aminotransferase (ALT) or aspartate aminotransferase (AST) elevations between 3-5×ULN, or >100 U/L but <200 U/L above the baseline value, the dose of lomitapide was reduced to the previously tolerated dose level, with the possibility to re-escalate dose once transaminase elevations were resolved. Once a maximum dose was established, patients remained on this dose up to Week 26.
(§2) Lipid levels and safety indices, including liver function tests, were evaluated at baseline, before each dose increase, and then every 4 weeks until week 26.
(§3) Secondary endpoints include other lipid parameters, hepatic fat and liver stiffness and Chylomicron kinetics of Lomitapide in combination with other lipid lowering agents in term of changes at 26 weeks from baseline. Including: • a) Percent change in TC, non-HDL-C, LDL-C, VLDL, Lp(a), as well as apolipoproteins B and A1. • b) Safety of Lomitapide in patients with FCS assessed by changes in laboratory parameters, electrocardiogram, physical examinations and weight. • c) Record of episodes of pancreatitis • d) Change in hepatic fat liver stiffness measured by MRI and/or Transient Elastography (Fibroscan). • e) Chylomicron kinetics.
Adverse events (AEs) were coded using MedDRA, Version 11.0. AEs were judged by the investigators as not related, unlikely, possibly, probably or definitely related to study drug and were reviewed regularly by an independent Data and Safety Monitoring Board.

[2] = tested on: patients with Familial Chylomicronemia Syndrome (FCS); experiment: Clinical study of lomitapide in patients with FCS: fasting lipids, lipoproteins, pancreatitis episodes (26 weeks); type: in vivo
Excerpt: This clinical study evaluated the safety, tolerability, and efficacy of Lomitapide in patients with Familial Chylomicronemia Syndrome (FCS).
Patients were screened for eligibility between 12 to 6 weeks before the first dose of Lomitapide (screening period). After screening period, all enrolled patients entered a run-in phase of at least 6 weeks during which lipid-lowering therapy, daily dietary supplementation of vitamin E, essential fatty acids and a low-fat diet are instituted and stabilized. At the end of the run-in phase, the patients entered into a 26-week efficacy phase, during which they receive lomitapide in addition to their lipid-lowering therapy. Patients must follow a diet comprising <10% energy from fat per day during all the study.
All patients who meet the eligibility criteria, and after 6-week diet period (run-in) were treated with Lomitapide 5 mg, 10 mg, 15 mg, 20 mg, 30 mg, 40 mg, 50 mg up to 60 mg daily based on lipid profile and tolerability. Patients remain at their maximum dose until the end of 26 weeks.
as §1, §2
The Primary Endpoint was percent change in tryglycerides (TG) at the maximum tolerated dose compared to baseline after 26 weeks of treatment in combination with other lipid lowering therapy in patients with Familial Chylomicronemia Syndrome (FCS).
as §3
To enable collection of data for the primary and other endpoints a fasting lipid and safety panel, including liver function tests, was obtained at baseline, prior to each dose escalation, and every 4 weeks thereafter until Week 26. Blood was drawn at baseline and at each visit following a 12 hour fast. Testing included a standard metabolic panel, a complete blood count, urinalysis. Ten patients underwent a metabolic study to determine postprandial chylomicron metabolism and fatty acid profile. Available samples were separated by centrifugation and immediately stored at −80° C. and were shipped in dry ice at the end of the study for analysis.
Lipid and lipoprotein analyses were conducted on serum samples. Total cholesterol (TC), high density lipoprotein-cholesterol (HDL-C), and TGs were measured enzymatically. Non-HDL-C was calculated by subtracting HDL-C levels from TC levels. ApoA-I, apoB and Lp(a) were measured by immunonephelometry. […]

[3] = tested on: patients with Familial Chylomicronemia Syndrome (FCS); experiment: Clinical study in FCS patients: hepatic fat (MRI), liver stiffness, NFS and FIB-4 scores; type: in vivo, human
Excerpt: as §3
Percentage hepatic fat was determined by magnetic resonance imaging (MRI) at baseline and Week 26. The MRI protocol included a dual-phase sequence and the IDEAL IQ sequence. Post-processing software, provided by the manufacturer, was used to generate fat fraction maps. A radiologist trained in abdominal imaging imaged four 1 cm^2 regions of interest (ROIs) to measure in-phase signal intensities of the liver parenchyma. ROIs were copied from the in-phase images to the opposed-phase to ensure identical size and location. Focal hepatic lesions, major branches of portal or hepatic veins, and artifacts were avoided. The mean of the signal intensity of the liver was calculated as the average value of the four signal intensities of the liver parenchyma both in the in-phase and in the opposed phase. The hepatic fat fraction was then calculated with the following formula: 100×(signal intensityIP−signal intensityOP)/(2×signal intensityIP). Finally, ROIs were also copied in the HFF Axial IDEAL IQ map to ensure identical size and location (this map was not available in one patient). The liver ROIs placed on the IDEAL-IQ fat fraction reconstruction were used to generate estimates of percentage fat.
Noninvasive quantification of liver stiffness (LSM) in kPa (estimated fibrosis score: F0 to F1: 2-7 kPa; F2: 7.5-10 kPa; F3: 10-14 kPa; F4: […]) was measured by ultrasound-based transient elastography using FibroScan® or shear wave elastography. Non-alcoholic fatty liver disease fibrosis score (NFS) and fibrosis-4 (FIB-4) score were calculated according to Angulo et al (2007) (Angulo P, Hui J M, Marchesini G, et al. The NAFLD fibrosis score: a noninvasive system that identifies liver fibrosis in patients with NAFLD. Hepatology 2007; 45(4), which is incorporated by reference herein.
Numeric parameters were expressed as median values and 97.5% confidence intervals, while dichotomous variables were expressed as proportions. Differences in numeric parameters were evaluated by the Exact Wilcoxon-Mann-Whitney Test (R CRAN “coin” package). Differences in proportions were evaluated by the Chi Square test. Percentual reductions of numeric variables at Week 26 were expressed as median values (with 97.5% confidence intervals) of the individual patients' variations from Week 0. Correlation of TG percent reduction with lomitapide dose was calculated by partial Spearman's correlation adjusting for TG baseline absolute values (R CRAN ‘ppcor’ package). All calculations were performed by the R statistical software Version 4.04 under the RStudio Version 1.3.1093 interface.

[4] = 18 subjects, baseline to Week 26

With O=C(NC1CCN(CCCCC2(C(=O)NCC(F)(F)F)c3ccccc3-c3ccccc32)CC1)c1ccccc1-c1ccc(C(F)(F)F)cc1 [lomitapide, N-(2,2,2-trifluoroethyl)-9-[4-[4-[[[4′(trifluoromethyl) [1,1′-biphenyl]-2-yl]carbonyl]amino]-1-piperidinyl]butyl]-9H-fluorene-9carboxamide] as the compound, how does the “patients completing the study (26 weeks)” value ([1]; 18 enrolled) read?
The value was 100%.

What about the “elevations in bilirubin or alkaline phosphatase levels” value ([1]; 26 weeks) of the same compound?
The value was “No subject experienced elevations”.

And the tolerability of treatment ([1]; 26 weeks, in words)?
The tolerability of treatment was “well tolerated”.

And the “permanent discontinuation due to liver transaminase elevations” value ([1]; increases managed by dose reduction or temporary interruption)?
The value was “No subject discontinued treatment permanently”.

And the “median lomitapide maximum dose” value ([1]; individually determined by lipid profile, safety and tolerability, by Week 26, 18 subjects)?
The value was 35 mg/day.

And the “severity of adverse events” value ([1]; mostly gastrointestinal tolerability and liver enzyme elevations)?
Its value is “mild to moderate”.

And the “episodes of acute pancreatitis or severe abdominal pain during treatment” value ([2]; 26 weeks, all patients with history of acute pancreatitis)?
The value was “No patient experienced an episode of acute pancreatitis or severe abdominal pain”.

What about the “range of TG decrease in the six subjects with decreases up to 50%” value ([2]; Week 26) of the same compound?
Its value is 18.25-49.71%.

What about the “reduction in TG levels from baseline” value ([2]; Week 26, n=18, p<0.0001) of the same compound?
The value was 70.5%.

And the “patients with TG reduction >70%” value ([2]; Week 26, nine of 18 patients)?
The value was 50%.

What about the “subjects achieving TG levels <750 mg/dL (<8.5 mmol/L)” value ([2]; Week 26, of 18) of the same compound?
Its value is “Thirteen”.

And the “subjects with decreases in TG up to 50%” value ([2]; Week 26, six of 18 subjects)?
The value was 33.3%.

And the “patients achieving TG levels <500 mg/dL (<5.6 mmol/L)” value ([2]; Week 26, ten of 18)?
The value was 55.6%.

And the “patients with TG reduction >50%” value ([2]; Week 26, twelve of 18 patients)?
Its value is 66.7%.

And the “mean dose when patients crossed the threshold of <500 mg/dL triglycerides” value ([2]; daily dose)?
The value was 27 mg.

And the “mean dose when patients crossed the threshold of <750 mg/dL triglycerides” value ([2]; daily dose)?
The value was 24 mg.

And the “mean dose when patients crossed the threshold of <1000 mg/dL triglycerides” value ([2]; daily dose)?
The value was 18 mg.

What about the “median dose when patients crossed the threshold of <500 mg/dL triglycerides” value ([2]; daily dose) of the same compound?
Its value is 20 mg.

What about the “median dose when patients crossed the threshold of <750 mg/dL triglycerides” value ([2]; daily dose) of the same compound?
Its value is 20 mg.

And the “median dose when patients crossed the threshold of <1000 mg/dL triglycerides” value ([2]; daily dose)?
Its value is 10 mg.

And the “Lp(a) levels, difference from baseline to Week 26” value ([2]; in words)?
Its value is “No significant differences”.

And the “hsCRP levels, difference from baseline to Week 26” value ([2]; in words)?
Its value is “No significant differences”.

What about the “fasting triglyceride levels compared to baseline” value ([2]; in words, over 26 weeks) of the same compound?
The value was “significant reduction”.

What about the “patients achieving triglyceride plasma levels <1000 mg/dL” value ([2]; n=14 of 18) of the same compound?
The value was 77.8%.

What about the “hsCRP, median at Week 26” value ([2]; n=18, Week 26 (baseline 1.2)) of the same compound?
The value was 1.24 mg/L.

And the “Lp(a), median at Week 26” value ([2]; n=18, Week 26 (baseline 6))?
The value was 5.5 nmol/L.

What about the “HDL-C, median at Week 26” value ([2]; n=18, Week 26 (baseline 16)) of the same compound?
The value was 18 mg/dL.

What about the “ApoB, median at Week 26” value ([2]; n=18, Week 26 (baseline 81.85)) of the same compound?
Its value is 39.25 mg/dL.

And the “ApoA-I, median at Week 26” value ([2]; n=18, Week 26 (baseline 93.7))?
The value was 74.95 mg/dL.

What about the “non-HDL-C, median at Week 26” value ([2]; n=18, Week 26 (baseline 184)) of the same compound?
Its value is 90.0 mg/dL.

What about the “TC, median at Week 26” value ([2]; n=18, Week 26 (baseline 205.5)) of the same compound?
The value was 94 mg/dL.

And the “ApoA-I, median of individual changes from baseline %” value ([2]; n=18, baseline to Week 26)?
The value was −28.1% and −23.0%.

What about the “ApoB, median of individual changes from baseline %” value ([2]; n=18, baseline to Week 26) of the same compound?
The value was −43.8%.

And the “HDL-C, median of individual changes from baseline %” value ([2]; n=18, baseline to Week 26)?
Its value is 20.7% and +20.7%.

And the “Lp(a), median of individual changes from baseline %” value ([2]; n=18, baseline to Week 26)?
The value was “+40.5%”.

What about the “TC, median of individual changes from baseline %” value ([2]; n=18, baseline to Week 26) of the same compound?
Its value is −51.7%.

What about the “hsCRP, median of individual changes from baseline %” value ([2]; n=18, baseline to Week 26) of the same compound?
The value was 9.8%.

What about the “non-HDL-C, median of individual changes from baseline %” value ([2]; n=18, baseline to Week 26) of the same compound?
Its value is −50.0%.

And the “TG, median of individual changes from baseline %” value ([2]; n=18, baseline to Week 26, primary endpoint)?
Its value is −70.5%.

What about the “TG, median at Week 26” value ([2]; n=18 FCS patients, fasting, lomitapide at maximum tolerated dose plus lipid-lowering therapy, Week 26 (baseline 1803.5)) of the same compound?
The value was 305.0 mg/dL.

What about the “Hepatic fat content on MRI, median at Week 26” value ([3]; 9 subjects, Week 26 (baseline 12.0)) of the same compound?
The value was 32.5%.

And the “Hepatic fat content on MRI, individual change from baseline, %” value ([3]; 9 subjects, baseline to Week 26)?
Its value is “+146.4%”.

What about the “LSM (liver stiffness measurement), median at Week 26” value ([3]; 14 subjects, Week 26 (baseline 5.7)) of the same compound?
The value was 5.5 kPa.

What about the “FIB-4, median at Week 26” value ([3]; 18 subjects, Week 26 (baseline 0.76)) of the same compound?
The value was 1.03.

And the “NFS, median at Week 26” value ([3]; 18 subjects, Week 26 (baseline 0.786))?
Its value is 0.428.

And the “FIB-4, individual change from baseline, %” value [3, 4]?
The value was “+38.44%”.

And the “NFS, individual change from baseline, %” value [3, 4]?
The value was −51.69%.

What about the “non-invasive liver fibrosis measurements (liver stiffness, FIB-4 and NFS scores), change” value ([3]; baseline to Week 26, in words) of the same compound?
The value was “No significant changes”.

What about the “hepatic fat content at week 26 in 3 patients with an increase” value ([3]; liver MRI) of the same compound?
The value was 30-50%.
